Data as given in patent publication US20100184711A1, “Alpha-GLYCOSYL THIOLS AND alpha-S-LINKED GLYCOLIPIDS” (UNIVERSITY COLLEGE DUBLIN, NATIONAL UNIVERSITY OF IRELAND, …, priority 2008, published 2010).

Tested on: iNKT cells
Assay: iNKT cells co-cultured with CD1d+ cells, cytokine release
Type: cell-based
Method: iNKT cells were treated with an α-S-linked galactosylceramide (alpha-GalCer) to determine immunostimulatory activity. FIGS. 4 and 5 show the amounts of interferon-gamma and IL-4 released (expressed as a fold-increase over the levels produced in responses to the mock-transfected cells alone) in 5 experiments. Cytokine was released when iNKT cells were co-cultured with CD1d+ cells in the absence of added glycolipid (second bar). This was enhanced for both cytokines when alpha-GalCer was added and blocked using an antibody specific for CD1d.

[1] = iNKT cells co-cultured with CD1d+ cells, compared with no added glycolipid, 5 experiments, FIGS. 4 and 5

## CCCCCCCCCCCCCCCCCCCCCCCCCC(=O)N[C@@H](CO[C@H]1O[C@H](CO)[C@H](O)[C@H](O)[C@H]1O)[C@H](O)[C@H](O)CCCCCCCCCCCCCC [alpha-GalCer]
iNKT cells co-cultured with CD1d+ cells plus anti-CD1d antibody, both cytokines
  effect of antibody specific for CD1d on glycolipid-induced cytokine release: blocked
[1]
  IL-4 released (fold-increase over the levels produced in response to mock-transfected cells alone): enhanced
  interferon-gamma released (fold-increase over the levels produced in response to mock-transfected cells alone): enhanced
